Experimental findings from patent US12552793B2, “Purine derivative and medical use thereof” (KANGBAIDA (SICHUAN) BIOTECHNOLOGY CO., LTD., priority 2019, dated 2026) are described below.

pIC50: −log10 of the molar value.
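Also: enzyme inhibition of DNA-PK with kinase activity read out by chemiluminescence on a microplate reader after adding a kinase detection reagent.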

For the first assay, the target named is T1, DNA-PK kinase (Homo sapiens (Human), UniProt P78527). The assay can be described thus: biochemical.
Procedure: Inhibition of DNA-PK Kinase
The inhibitory activity of the compounds against DNA-PK kinase was determined using a DNA-PK kinase assay kit (purchased from Promega, Cat. No. V4107, Batch No. 0000366495). The results were quantified using chemiluminescence, specifically as follows: • i. ADP-fluorescence standard curves at different concentrations were constructed according to the instructions of the kit; • ii. reaction systems (5 L) were prepared in a 384-well white plate; 1 μL of a compound (concentration gradients 1 μM, 200 nM, 40 nM, 8 nM, 1.6 nM, 0.32 nM, 0.064 nM and 0.013 nM were set for each compound), 20 units of DNA-PK kinase, 0.2 μg/μL substrate, 10 μg/μL DNA, 50 μM ATP and 1% DMSO were successively added to each well; • iii. the mixtures were well mixed, centrifuged (1000 rpm, 30 s), and incubated at 37° C. for 60 min; • iv. the reactions were terminated by adding 5 μL of ADP-Glo™ Reagent; the mixtures were well mixed, centrifuged (1000 rpm, 30 s), and incubated at room temperature for 40 min; • v. 10 μL of Kinase Detection Reagent was added; the mixtures were well mixed by shaking, centrifuged (1000 rpm, 30 s), and incubated at room temperature for 30 min; • vi. fluorescence values were measured using a microplate reader (Thermo fisher, Varioskan LUX). IC50 was calculated using GraphPad Prism 8.
The compound `Cc1cc2ncnn2cc1Nc1ncc2c(n1)n(C13CC4CC(C1)C(O)C(C4)C3)c(=O)n2C` (centres unmarked) [Compound 18-2, 9-(4-Hydroxyadamantan-1-yl)-7-methyl-2-((7-methyl-[1,2,4]triazolo[1,5-a]pyridin-6-yl)amino)-7,9-dihydro-8H-purin-8-one] showed a pIC50 of 9.89.

The target in a further assay is T1, DNA-PK kinase.
Test: not given
Compound `Cc1cc(C(N)=O)c(F)cc1Nc1ncc2c(n1)n(C1C3CC4CC1CC(O)(C4)C3)c(=O)n2C` (single isomer, unassigned) [Compound 27-1, 2-Fluoro-4-((9-(5-hydroxyadamantan-2-yl)-7-methyl-8-oxo-8,9-dihydro-7H-purin-2-yl)amino)-5-methylbenzamide] showed a negative-log IC50 (pIC50) of 7.98.
Same read-out and setting: to `Cc1cc(C(N)=O)c(F)cc1Nc1ncc2c(n1)n(C13CC4CC(C1)C(C#N)C(C4)C3)c(=O)n2C` (single isomer, unassigned) [Compound 24-1, 4-((9-(4-Cyanoadamantan-1-yl)-7-methyl-8-oxo-8,9-dihydro-7H-purin-2-yl)amino)-2-fluoro-5-methylbenzamide] belongs 9.18; to `Cc1cc(C(N)=O)c(F)cc1Nc1ncc2c(n1)n(C1C3CC4CC1CC(O)(C4)C3)c(=O)n2C` (single isomer, unassigned) [2-Fluoro-4-((9-(5-hydroxyadamantan-2-yl)-7-methyl-8-oxo-8,9-dihydro-7H-purin-2-yl)amino)-5-methylbenzamide], 9.32; to `Cc1cc2ncnn2cc1Nc1ncc2c(n1)n(C1C3CC4CC1CC(C#N)(C4)C3)c(=O)n2C` (single isomer, unassigned) [Compound 28-2, 4-(7-Methyl-2-((7-methyl-[1,2,4]triazolo[1,5-a]pyridin-6-yl)amino)-8-oxo-7,8-dihydro-9H-purin-9-yl)adamantane-1-carbonitrile], 10.00.
The compound `Cc1cc2ncnn2cc1Nc1ncc2c(n1)n(C13CC4CC(CC(N)(C4)C1)C3)c(=O)n2C` [Compound 10, 7-Methyl-2-[(7-methyl-[1,2,4]triazolo[1,5-a]pyridin-6-yl)amino]-9-[3-aminoadamantan-1-yl]-8,9-dihydro-7H-purin-8-one] had a pIC50 of 8.65.
In turn, `COC12CC3CC(C1)CC(n1c(=O)n(C)c4cnc(Nc5cn6ncnc6cc5C)nc41)(C3)C2` [Compound 11, 9-(3-Methoxyadamantan-1-yl)-7-methyl-2-((7-methyl-[1,2,4]triazolo[1,5-a]pyridin-6-yl)amino)-7,9-dihydro-8H-purin-8-one] gave a pIC50 of 10.00.
Turning to `Cc1cc2ncccc2cc1Nc1ncc2c(n1)n(C13CC4CC(CC(O)(C4)C1)C3)c(=O)n2C` [Compound 2, 9-(3-Hydroxyadamantan-1-yl)-7-methyl-2-((7-methylquinolin-6-yl)amino)-7,9-dihydro-8H-purin-8-one], the pIC50 is 11.00.
Take `Cc1cc(C(N)=O)c(F)cc1Nc1ncc2c(n1)n(C13CC4CC(CC(O)(C4)C1)C3)c(=O)n2C` [Compound 22, 2-Fluoro-4-((9-(3-hydroxyadamantan-1-yl)-7-methyl-8-oxo-8,9-dihydro-7H-purin-2-yl)amino)-5-methylbenzamide]: the negative logarithm of the IC50 (pIC50) was 11.00.
As to `Cc1cc2c(cc1Nc1ncc3c(n1)n(C14CC5CC(C1)C(=O)C(C5)C4)c(=O)n3C)CCO2` [Compound 30, 7-Methyl-2-((6-methyl-2,3-dihydrobenzofuran-5-yl)amino)-9-(4-oxoadamantan-1-yl)-7,9-dihydro-8H-purin-8-one], the pIC50 is 10.10.
The compound `Cn1c(=O)n(C23CC4CC(CC(O)(C4)C2)C3)c2nc(Nc3cc4c(cc3Cl)OCC4)ncc21` [Compound 33, 2-((6-Chloro-2,3-dihydrobenzofuran-5-yl)amino)-9-(3-hydroxyadamantan-1-yl)-7-methyl-7,9-dihydro-8H-purin-8-one] gave a negative-log IC50 (pIC50) of 8.19.
In turn, `Cc1cc(C#N)ccc1Nc1ncc2c(n1)n(C1C3CC4CC1CC(O)(C4)C3)c(=O)n2C` (single isomer, unassigned) [Compound 13-2, 4-((9-(5-Hydroxyadamantan-2-yl)-7-methyl-8-oxo-8,9-dihydro-7H-purin-2-yl)amino)-3-methylbenzonitrile] had a negative-log IC50 (pIC50) of 7.28.
Take `Cc1cc2ncnn2cc1Nc1ncc2c(n1)n(C13CC4CC(CC(CO)(C4)C1)C3)c(=O)n2C` [Compound 8, 7-Methyl-2-[(7-methyl-[1,2,4]triazolo[1,5-a]pyridin-6-yl)amino]-9-[3-(hydroxymethyl)adamantan-1-yl]-8,9-dihydro-7H-purin-8-one]: the negative logarithm of the IC50 (pIC50) is 11.00.
The compound `Cc1cc2ncnn2cc1Nc1ncc2c(n1)n(C13CC4CC(CC(C(=O)OC(C)(C)C)(C4)C1)C3)c(=O)n2C` [Compound 3, tert-Butyl-3-(7-methyl-2-[(7-methyl-[1,2,4]triazolo[1,5-a]pyridin-6-yl)amino]-8-oxo-8,9-dihydro-7H-purin-9-yl)adamantane-1-carboxylate] had a negative-log IC50 (pIC50) of 7.83.
For `Cc1cc2ncnn2cc1Nc1ncc2c(n1)n(C13CC4CC(CC(C(=O)O)(C4)C1)C3)c(=O)n2C` [Compound 4, 3-(7-Methyl-2-((7-methyl-[1,2,4]triazolo[1,5-a]pyridin-6-yl)amino)-8-oxo-7,8-dihydro-9H-purin-9-yl)adamantane-1-carboxylic acid], the negative-log IC50 (pIC50) was 9.35.
Regarding `Cc1cc2ncnn2cc1Nc1ncc2c(n1)n(C13CC4CC(CC(C(N)=O)(C4)C1)C3)c(=O)n2C` [Compound 5, 3-(7-Methyl-2-[(7-methyl-[1,2,4]triazolo[1,5-a]pyridin-6-yl)amino]-8-oxo-8,9-dihydro-7H-purin-9-yl)adamantane-1-carboxamide], the pIC50 is 8.41.
The same measure, in the same setting: the value for `Cc1cc2ncnn2cc1Nc1ncc2c(n1)n(C13CC4CC(C1)C(=O)C(C4)C3)c(=O)n2C` [Compound 19, 7-Methyl-2-((7-methyl-[1,2,4]triazolo[1,5-a]pyridin-6-yl)amino)-9-(4-oxoadamantan-1-yl)-7,9-dihydro-8H-purin-8-one] was 10.52; that for `Cc1cc2ncnn2cc1Nc1ncc2c(n1)n(C13CC4CC(CC(C(=O)N5CCOCC5)(C4)C1)C3)c(=O)n2C` [Compound 9, 7-Methyl-2-[(7-methyl-[1,2,4]triazolo[1,5-a]pyridin-6-yl)amino]-9-[3-(morpholine-4-carbonyl)adamantan-1-yl]-8,9-dihydro-7H-purin-8-one] was 8.96.
Same read-out and setting: to `Cc1cc2ncnn2cc1Nc1ncc2c(n1)n(C13CC4CC(C1)C(C#N)C(C4)C3)c(=O)n2C` (single isomer, unassigned) [Compound 21-1, 5-(7-Methyl-2-((7-methyl-[1,2,4]triazolo[1,5-a]pyridin-6-yl)amino)-8-oxo-7,8-dihydro-9H-purin-9-yl)adamantane-2-carbonitrile] belongs 11.00; to `Cc1cc2ncnn2cc1Nc1ncc2c(n1)n(C1C3CC4CC1CC(C#N)(C4)C3)c(=O)n2C` (single isomer, unassigned) [Compound 28-1, 4-(7-Methyl-2-((7-methyl-[1,2,4]triazolo[1,5-a]pyridin-6-yl)amino)-8-oxo-7,8-dihydro-9H-purin-9-yl)adamantane-1-carbonitrile], 9.12; to `Cc1cc(C(N)=O)c(F)cc1Nc1ncc2c(n1)n(C13CC4CC(C1)C(C#N)C(C4)C3)c(=O)n2C` (single isomer, unassigned) [Compound 24-2, 4-((9-(4-Cyanoadamantan-1-yl)-7-methyl-8-oxo-8,9-dihydro-7H-purin-2-yl)amino)-2-fluoro-5-methylbenzamide], 8.08.
Regarding `Cc1cc(C#N)ccc1Nc1ncc2c(n1)n(C1C3CC4CC1CC(O)(C4)C3)c(=O)n2C` (single isomer, unassigned) [Compound 13-1, 4-((9-(5-Hydroxyadamantan-2-yl)-7-methyl-8-oxo-8,9-dihydro-7H-purin-2-yl)amino)-3-methylbenzonitrile], the negative-log IC50 (pIC50) is 9.17.
`COC1(OC)C2CC3CC1CC(n1c(=O)n(C)c4cnc(Nc5cc6c(cc5C)OCC6)nc41)(C3)C2` [Compound 31, 9-(4,4-Dimethoxyadamantan-1-yl)-7-methyl-2-((6-methyl-2,3-dihydrobenzofuran-5-yl)amino)-7,9-dihydro-8H-purin-8-one] showed a pIC50 of 10.00.
The same measure, in the same setting: to `Cc1cc(C(N)=O)c(F)cc1Nc1ncc2c(n1)n(C13CC4CC(CC(C#N)(C4)C1)C3)c(=O)n2C` [Compound 34, 4-((9-(3-Cyanoadamantan-1-yl)-7-methyl-8-oxo-8,9-dihydro-7H-purin-2-yl)amino)-2-fluoro-5-methylbenzamide] belongs 8.12; to `Cc1cc2ncnn2cc1Nc1ncc2[nH]c(=O)n(C34CC5CC(CC(O)(C5)C3)C4)c2n1` [Compound 36, 9-(3-Hydroxyadamantan-1-yl)-2-((7-methyl-[1,2,4]triazolo[1,5-a]pyridin-6-yl)amino)-7,9-dihydro-8H-purin-8-one], 9.49.
Consider `Cc1cc2ncnn2cc1Nc1ncc2c(n1)n(C13CC4CC(C1)C(C#N)C(C4)C3)c(=O)n2C` (single isomer, unassigned) [Compound 21-2, 5-(7-Methyl-2-((7-methyl-[1,2,4]triazolo[1,5-a]pyridin-6-yl)amino)-8-oxo-7,8-dihydro-9H-purin-9-yl)adamantane-2-carbonitrile], for which the pIC50 was 10.00.
As to `Cc1cc2c(cc1Nc1ncc3c(n1)n(C14CC5CC(CC(O)(C5)C1)C4)c(=O)n3C)CCO2` [Compound 32, 9-(3-Hydroxyadamantan-1-yl)-7-methyl-2-((6-methyl-2,3-dihydrobenzofuran-5-yl)amino)-7,9-dihydro-8H-purin-8-one], the pIC50 was 8.64.
Compound `CCOC(=O)C12CC3CC(C1)CC(n1c(=O)n(C)c4cnc(Nc5cn6ncnc6cc5C)nc41)(C3)C2` [Compound 7, Ethyl-3-(7-methyl-2-[(7-methyl-[1,2,4]triazolo[1,5-a]pyridin-6-yl)amino]-8-oxo-8,9-dihydro-7H-purin-9-yl)adamantane-1-carboxylate] had a pIC50 of 11.00.
`Cc1cc(C(N)=O)c(F)cc1Nc1ncc2c(n1)n(C13CC4CC(C1)C(=O)C(C4)C3)c(=O)n2C` [Compound 25, 2-Fluoro-5-methyl-4-((7-methyl-8-oxo-9-(4-oxoadamantan-1-yl)-8,9-dihydro-7H-purin-2-yl)amino)benzamide] gave a negative logarithm of the IC50 (pIC50) of 11.00.

One may read the pIC50 as the negative decadic logarithm of the IC50, by convention in mol/L. A higher pIC50 goes with a small IC50.
